A short description of series [1]: Cytotoxicity against mouse lymphocytes at 100 ug/mL by MTS assay. Background: Tetrazolium assays rely on reduction of a dye to a coloured formazan, in cell work by metabolically active cells.
Series [2] is filed under the species Mus musculus. In words: Increase in LPS-induced proliferation in mouse B-lymphocytes at 1 ug/mL by MTS assay. It is filed as functional, cell-based.
Series [3] is filed under the species Mus musculus. In words: Increase in concanavalin A-induced proliferation in mouse T-lymphocytes at 1 ug/mL by MTS assay. Format: functional, cell-based.
The nature of series [4]: Cytotoxicity against mouse lymphocytes at 10 ug/mL by MTS assay.
The species named for series [5] is Mus musculus. As to the kind of experiment: Immunostimulant activity in mouse lymphocytes at 100 pg/ml to 1 ug/mL by MTS assay. Format: functional, cell-based.
Series [6] can be described thus: Suppression of concanavalin A-induced proliferation in mouse T-lymphocytes at 1 ug/mL by MTS assay. It is filed as functional.

Activity calls are given as the source filed them. The rule behind the calls is not given here.

In the case of `C[C@@H]1O[C@@H](O[C@H]2[C@H](O[C@H]3[C@H](OC(=O)[C@]45CCC(C)(C)C[C@H]4C4=CC[C@@H]6[C@@]7(C)CC[C@H](O[C@@H]8O[C@H](CO)[C@@H](O)[C@H](O)[C@H]8O)[C@@](C)(C=O)[C@@H]7CC[C@@]6(C)[C@]4(C)CC5)O[C@H](CO[C@@H]4O[C@H](CO)[C@@H](O)[C@H](O)[C@H]4O)[C@@H](O)[C@@H]3O)OC[C@H](O)[C@@H]2O)[C@H](O)[C@H](O)[C@H]1O`, the Activity result in series [1] is “Non-toxic”. Also, the outcome in the series filed under Mus musculus [2] and in the series listed under Mus musculus [3] was Active.
In the case of `C[C@@H]1O[C@@H](O[C@@H]2[C@@H](O)[C@H](OC(=O)[C@]34CCC(C)(C)C[C@H]3C3=CC[C@@H]5[C@@]6(C)CC[C@H](O[C@@H]7O[C@H](C(=O)O)[C@@H](O)[C@H](O[C@@H]8OC[C@@H](O)[C@H](O)[C@H]8O)[C@H]7O[C@@H]7O[C@H](CO)[C@H](O)[C@H](O)[C@H]7O)[C@@](C)(C=O)[C@@H]6CC[C@@]5(C)[C@]3(C)CC4)O[C@H](C)[C@@H]2O[C@@H]2O[C@@H](C)[C@H](O[C@@H]3OC[C@@H](O)[C@H](O[C@@H]4OC[C@@H](O)[C@H](O)[C@H]4O)[C@H]3O)[C@@H](O)[C@H]2O)[C@H](O)[C@H](O)[C@H]1O`, the Activity result in series [4] is reported as “Non-toxic”; in series [1] it was 58%; in series [6], 40%. For the same compound, the outcome in the series filed under Mus musculus [5] and in the series filed under Mus musculus [2] was Active.

Values taken from ChEMBL document CHEMBL1155620, “Two new biologically active triterpene saponins from Acanthophyllum squarrosum” (J Nat Prod, 2000).
